Test system: ill-health symptoms of Lead intoxication
Assay: Inventor's trial-and-error self-administration of vitamins to alleviate Lead intoxication symptoms
Format: in vivo, human
Details: for soothing of Lead intoxication symptoms: Beta Carotene around 20,000 I.U. and vitamin E around 100 I.U. in the formula, Lead intoxication with no other health conditions
Text: I was already taking vitamins, so I started working with variety of vitamins in varying doses to alleviate the suffering. This was like an experiment on my body to find a balanced dose to alleviate Lead intoxication symptoms. It took me one and half decade to find the correct mix and proportion of vitamins. I will explain later why it took me so many years.
Vitamins dose was working correctly, however, I was taking certain quantity of milk (Calcium) in my diet so dose was adjusted with certain quantity of milk also. […] However, most of the symptoms as described earlier were alleviated with vitamins. In 2001, dizziness was extreme and glucose test was very close to borderline. Additional symptoms like some weight gain, elevated blood pressure and elevated cholesterol were noted. I realized immediately that I have done something wrong in working out the vitamin dose for Lead intoxication so I reversed engineering to figure out the dose with less quantity of milk. In 2005-2006 timeframe, I started gaining confidence that vitamin dose to cure Lead intoxication is absolutely correct and I decided to file the patent papers. […] I wish I could have this dose in 1990 then I didn't have to go through all the suffering and pain from 1990-2005, almost fifteen years. Therefore the vitamin dose or multi-vitamin formula for Lead intoxication is determined by trial and error method and is the result of fifteen years of work. Sometimes God makes the things happen for purpose and I was chosen the vehicle.
All these symptoms depend upon the amount of lead in body and the kind of diet and vitamins I was taking. I went through lot of ups and downs in figuring out the vitamin dose or formula to cure Lead induced ill-health symptoms. I gained so much experience by working trial and error methods on vitamins that I could simulate most of these symptoms in my body. […] I have shown this formula below as OM-50 dose, primarily because some vitamins' quantities are in 50 unit. Multiply all the ingredients by 2 will give OM-100, and divide by 2 will give OM-25, and so on.

| Compound | soothing of Lead intoxication symptoms | effectiveness during heavy bleeding and/or elevated sugar level (Beta Carotene 30,000 I.U. in the formula, Lead intoxication plus heavy bleeding and/or elevated sugar level) |
| --- | --- | --- |
| vitamin E | soothe very effectively | – |
| CC1=C(/C=C/C(C)=C/C=C/C(C)=C/C=C/C=C(C)/C=C/C=C(C)/C=C/C2=C(C)CCCC2(C)C)C(C)(C)CCC1 [Beta Carotene] | soothe very effectively | very effective |
